From PubChem BioAssay (NCI)
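Cells were grown in 96-well plates and exposed to each compound for 48 hours at five concentrations; endpoints were interpolated linearly between bracketing concentrations, or set to the highest concentration if not reached. TGI marks complete inhibition of growth.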

Experiments:
Assay in all cases: growth of human tumour cells (NCI), 48 h
[1] = test system: SR leukemia
[2] = test system: LOX IMVI melanoma
[3] = test system: A498 renal
[4] = test system: SK-MEL-2 melanoma
[5] = test system: RPMI-8226 leukemia
[6] = test system: SF-295 CNS
[7] = test system: SK-OV-3 ovarian
[8] = test system: 786-0 renal
[9] = test system: ACHN renal
[10] = test system: K-562 leukemia
[11] = test system: NCI-H23 lung
[12] = test system: SW-620 colon
[13] = test system: HOP-92 NSCLC
[14] = test system: UO-31 renal
[15] = test system: MDA-MB-435
[16] = test system: HL-60(TB) leukemia
[17] = test system: UACC-62 melanoma
[18] = test system: COLO 205 colon
[19] = test system: IGROV1 ovarian
[20] = test system: BT-549 breast
[21] = test system: PC-3 prostate
[22] = test system: HS 578T breast
[23] = test system: DU-145 prostate
[24] = test system: U251 CNS
[25] = test system: HCT-15 colon
[26] = test system: HT29 colon
[27] = test system: MDA-N
[28] = test system: MCF7 breast
[29] = test system: HCT-116 colon
[30] = test system: SK-MEL-28 melanoma
[31] = test system: KM12 colon
[32] = test system: HCC-2998 colon
[33] = test system: OVCAR-8 ovarian
[34] = test system: EKVX NSCLC
[35] = test system: SK-MEL-5 melanoma
[36] = test system: CAKI-1 renal
[37] = test system: TK-10 renal
[38] = test system: A549 NSCLC
[39] = test system: M14 melanoma
[40] = test system: OVCAR-5 ovarian
[41] = test system: NCI-H226 lung
[42] = test system: SNB-75 CNS
[43] = test system: OVCAR-3 ovarian
[44] = test system: SNB-19 CNS
[45] = test system: UACC-257 melanoma
[46] = test system: MDA-MB-231 breast
[47] = test system: OVCAR-4 ovarian
[48] = test system: NCI/ADR-RES ovarian
[49] = test system: SN12C renal
[50] = test system: MALME-3M melanoma
[51] = test system: CCRF-CEM leukemia
[52] = test system: HOP-62 NSCLC
[53] = test system: MOLT-4 leukemia
[54] = test system: SF-268 CNS
[55] = test system: NCI-H460 lung
[56] = test system: T-47D breast
[57] = test system: SF-539 CNS
[58] = test system: RXF 393 renal
[59] = test system: NCI-H522 lung

CC1CCCC(C(=O)CC2CC(=O)NC(=O)C2)C1=O (stereo unspecified)
TGI [1]: > 100 µM | TGI [2]: > 100 µM | TGI [3]: > 100 µM | TGI [4]: > 100 µM | TGI [5]: > 100 µM | TGI [6]: > 100 µM | TGI [7]: > 100 µM | TGI [8]: > 100 µM | TGI [9]: > 100 µM | TGI [10]: > 100 µM | TGI [11]: > 100 µM | TGI [12]: > 100 µM | TGI [13]: > 100 µM | TGI [14]: > 100 µM | TGI [15]: > 100 µM | TGI [16]: > 100 µM | TGI [17]: > 100 µM | TGI [18]: > 100 µM | TGI [19]: > 100 µM | TGI [20]: > 100 µM | TGI [21]: > 100 µM | TGI [22]: > 100 µM | TGI [23]: > 100 µM | TGI [24]: > 100 µM | TGI [25]: > 100 µM | TGI [26]: > 100 µM | TGI [27]: > 100 µM | TGI [28]: > 100 µM | TGI [29]: > 100 µM | TGI [30]: > 100 µM | TGI [31]: > 100 µM | TGI [32]: > 100 µM | TGI [33]: > 100 µM | TGI [34]: > 100 µM | TGI [35]: > 100 µM | TGI [36]: > 100 µM | TGI [37]: > 100 µM | TGI [38]: > 100 µM | TGI [39]: > 100 µM | TGI [40]: > 100 µM | TGI [41]: > 100 µM | TGI [42]: > 100 µM | TGI [43]: > 100 µM | TGI [44]: > 100 µM | TGI [45]: > 100 µM | TGI [46]: > 100 µM | TGI [47]: > 100 µM | TGI [48]: > 100 µM | TGI [49]: > 100 µM | TGI [50]: > 100 µM | TGI [51]: > 100 µM | TGI [52]: > 100 µM | TGI [53]: > 100 µM | TGI [54]: > 100 µM | TGI [55]: > 100 µM | TGI [56]: > 100 µM | TGI [57]: > 100 µM | TGI [58]: > 100 µM

CCOP(=O)(CCCC(O)CNc1nc(N)nc(Cl)c1N=Nc1ccc(Cl)cc1)OCC (stereo unspecified)
TGI [1]: 6.82 µM | TGI [2]: 13.8 µM | TGI [3]: 20.7 µM | TGI [4]: 27.3 µM | TGI [5]: 8.23 µM | TGI [6]: 21.7 µM | TGI [7]: 19.2 µM | TGI [8]: 17.9 µM | TGI [9]: 15.4 µM | TGI [10]: 16 µM | TGI [11]: 28 µM | TGI [12]: 36.5 µM | TGI [13]: 25.8 µM | TGI [14]: 16.1 µM | TGI [15]: 19 µM | TGI [16]: 4.19 µM | TGI [17]: 19.1 µM | TGI [18]: 20.4 µM | TGI [19]: 26.1 µM | TGI [20]: 20.8 µM | TGI [21]: 16.7 µM | TGI [22]: 30.3 µM | TGI [23]: 18.2 µM | TGI [24]: 22.7 µM | TGI [25]: 20.2 µM | TGI [26]: 23.4 µM | TGI [27]: 18.8 µM | TGI [28]: 27 µM | TGI [29]: 21.7 µM | TGI [30]: 20.8 µM | TGI [31]: 25 µM | TGI [32]: 30.6 µM | TGI [33]: 22.9 µM | TGI [34]: 15.5 µM | TGI [35]: 15.5 µM | TGI [36]: 13.9 µM | TGI [37]: 13.6 µM | TGI [38]: 23.9 µM | TGI [40]: 25.5 µM | TGI [41]: 22.1 µM | TGI [42]: 11.1 µM | TGI [43]: 18.4 µM | TGI [44]: 22.8 µM | TGI [45]: 18.1 µM | TGI [46]: 8.6 µM | TGI [47]: 17.6 µM | TGI [48]: 31 µM | TGI [49]: 18.2 µM | TGI [59]: 17 µM | TGI [50]: 20.9 µM | TGI [51]: 9.92 µM | TGI [52]: 24.8 µM | TGI [53]: 11.8 µM | TGI [54]: 18.1 µM | TGI [55]: 37 µM | TGI [56]: 23.2 µM | TGI [57]: 23 µM | TGI [58]: 18.5 µM
